These results are taken from ChEMBL document CHEMBL4699448, “Garcinoic Acids and a Benzophenone Derivative from the Seeds of Garcinia kola and Their Antibacterial Activities against Oral Bacterial Pathogenic Organisms” (2020).

Structures are written as SMILES. Converted amounts (≈) assume the structure as drawn. Where only a bound is given, the exact number is not on record here.

Common to all, as to type: functional
Assay [1] relates to Porphyromonas gingivalis. Kind of assay: Bactericidal activity against Porphyromonas gingivalis ATCC 33277 assessed as reduction in bacterial growth incubated for 48 hrs by INT dye based broth dilution method. (In general: In broth dilution the organism is exposed to a series of concentrations in liquid medium.)
Assay [2] concerns Streptococcus sobrinus. Kind of assay: Antibacterial activity against Streptococcus sobrinus 6715 assessed as reduction in bacterial growth incubated for 24 hrs by INT dye based broth dilution method.
Assay [3] relates to Porphyromonas gingivalis. Kind of assay: Antibacterial activity against Porphyromonas gingivalis ATCC 33277 assessed as reduction in bacterial growth incubated for 24 hrs by INT dye based broth dilution method.
In assay [4] the test system is Streptococcus sobrinus. Put plainly: Bactericidal activity against Streptococcus sobrinus 6715 assessed as reduction in bacterial growth incubated for 48 hrs by INT dye based broth dilution method.

By MBC is commonly meant the smallest concentration meeting the test's criterion for killing. Usually MIC stands for the lowest concentration found to suppress growth. For the compound `O=C1C[C@@H](c2ccc(O)cc2)Oc2c1c(O)cc(O)c2[C@H]1C(=O)c2c(O)cc(O)cc2O[C@@H]1c1ccc(O)cc1`, the values for the MBC in the assay on Porphyromonas gingivalis [1] and in the assay with Streptococcus sobrinus [4] were above 1000 µM and 500 µM (≈ 271 µg/mL), respectively. Besides, the minimal inhibitory concentration (MIC) in the assay on Streptococcus sobrinus [2] and in the assay on Porphyromonas gingivalis [3] was 250 µM (≈ 136 µg/mL) throughout.
With `N=C(NCCCCCCNC(=N)NC(=N)Nc1ccc(Cl)cc1)NC(=N)Nc1ccc(Cl)cc1` [CHLORHEXIDINE], the MBC in the assay with Porphyromonas gingivalis [1] is 31.3 µM (≈ 15.8 µg/mL); in the assay on Streptococcus sobrinus [4] it was 2 µM (≈ 1.01 µg/mL). In addition, the figures for the MIC in the assay with Streptococcus sobrinus [2] and in the assay on Porphyromonas gingivalis [3] were 2 µM (≈ 1.01 µg/mL) and 15.6 µM (≈ 7.89 µg/mL), respectively.
Regarding `COc1ccc([C@H]2Oc3c(c(O)cc(O)c3[C@H]3C(=O)c4c(O)cc(O)cc4O[C@@H]3c3ccc(O)cc3)C(=O)[C@@H]2O)cc1O`, the MBC with Porphyromonas gingivalis [1] and in the assay with Streptococcus sobrinus [4] was above 1000 µM throughout. In addition, the MIC in the assay on Streptococcus sobrinus [2] is 250 µM (≈ 147 µg/mL); in the assay with Porphyromonas gingivalis [3] it was above 1000 µM.
For `C/C(=C\CC/C(C)=C/CC[C@]1(C)CCc2cc(O)cc(C)c2O1)CC/C=C(\C)C(=O)O`, the MBC was determined as 250 µM (≈ 107 µg/mL) in the assay with Porphyromonas gingivalis [1] and 62.5 µM (≈ 26.7 µg/mL) in the assay with Streptococcus sobrinus [4]. For the same compound, the MIC with Streptococcus sobrinus [2] and in the assay on Porphyromonas gingivalis [3] was 31.3 µM (≈ 13.4 µg/mL) in each case.
On to `O=C1c2c(O)cc(O)cc2O[C@H](c2ccc(O)cc2)[C@H]1c1c(O)cc(O)c2c1O[C@H](c1ccc(O)c(O)c1)[C@@H](O)C2=O`, for which the results for the MBC in the assay with Porphyromonas gingivalis [1] and with Streptococcus sobrinus [4] were above 1000 µM and 1000 µM (≈ 574 µg/mL), respectively. Besides, the MIC was 250 µM (≈ 144 µg/mL) in the assay on Streptococcus sobrinus [2] and above 1000 µM in the assay on Porphyromonas gingivalis [3].
For the compound `C/C(=C\CC/C(C)=C/CC[C@]1(C)CCc2cc(Oc3c(O)c(C)c(C)c4c3CC[C@@](C)(CC/C=C(\C)CC/C=C(\C)CC/C=C(\C)C(=O)O)O4)cc(C)c2O1)CC/C=C(\C)C(=O)O`, the MBC with Porphyromonas gingivalis [1] and in the assay with Streptococcus sobrinus [4] was above 1000 µM in each case. For the same compound, the MIC in the assay on Streptococcus sobrinus [2] and in the assay with Porphyromonas gingivalis [3] was above 1000 µM in each case.
Regarding `O=C1c2c(O)cc(O)cc2O[C@H](c2ccc(O)cc2)[C@H]1c1c(O)cc(O)c2c1O[C@H](c1ccc(O)cc1)[C@@H](O)C2=O`, the MBC with Porphyromonas gingivalis [1] was above 1000 µM; in the assay with Streptococcus sobrinus [4], 1000 µM (≈ 558 µg/mL). Further, the MIC in the assay with Streptococcus sobrinus [2] is 250 µM (≈ 140 µg/mL); with Porphyromonas gingivalis [3], above 1000 µM.
Regarding `C/C(=C\CC/C(C)=C/CC[C@]1(C)CCc2c(c(C)cc(O)c2-c2c(O)cc(C)c3c2CC[C@@](C)(CC/C=C(\C)CC/C=C(\C)CC/C=C(\C)C(=O)O)O3)O1)CC/C=C(\C)C(=O)O`, the minimum bactericidal concentration (MBC) with Porphyromonas gingivalis [1] and in the assay with Streptococcus sobrinus [4] was above 1000 µM in each case. Besides, the MIC in the assay with Streptococcus sobrinus [2] and with Porphyromonas gingivalis [3] was above 1000 µM throughout.
For the compound `CC1(C)CC[C@]2(C)CC[C@]3(C)[C@H]4CC=C5[C@@H](CC[C@H](O)C5(C)C)[C@]4(C)CC[C@@]3(C)[C@@H]2C1` [GLUTINOL], the minimum bactericidal concentration (MBC) in the assay with Porphyromonas gingivalis [1] and in the assay on Streptococcus sobrinus [4] was above 1000 µM throughout. In addition, the MIC in the assay with Streptococcus sobrinus [2] and in the assay with Porphyromonas gingivalis [3] was above 1000 µM each time.
Regarding `CC(C)=CCC/C(C)=C/Cc1c(O)cc(C(=O)c2ccccc2)cc1O`, the figures for the MBC in the assay with Porphyromonas gingivalis [1] and in the assay on Streptococcus sobrinus [4] were above 1000 µM and 31.3 µM (≈ 11 µg/mL), respectively. Besides, the MIC with Streptococcus sobrinus [2] came to 15.6 µM (≈ 5.47 µg/mL); in the assay with Porphyromonas gingivalis [3], 62.5 µM (≈ 21.9 µg/mL).
In the same order, the values of `C/C(=C\CC/C(C)=C/CC[C@]1(C)CCc2cc(Oc3c(O)cc(C)c4c3CC[C@@](C)(CC/C=C(\C)CC/C=C(\C)CC/C=C(\C)C(=O)O)O4)cc(C)c2O1)CC/C=C(\C)C(=O)O` are above 1000 µM, above 1000 µM, above 1000 µM and above 1000 µM.
In the same order, the values of `COc1ccc([C@@H]2CC(=O)c3c(O)cc(O)c([C@H]4C(=O)c5c(O)cc(O)cc5O[C@@H]4c4ccc(O)cc4)c3O2)cc1O` are above 1000 µM, above 1000 µM, 500 µM (≈ 286 µg/mL) and 125 µM (≈ 71.6 µg/mL).
